Values after ≈ are worked out from the molar mass of the structure shown. Where a SMILES comes first, the peptide text is derived from it. The star is where a group is joined. Decanoyl = CCCCCCCCCC(=O)*
Legend:
[1] = tested on: Trichophyton mentagrophytes; test: minimal growth inhibitory concentration (MIC) test, agar dilution; format: cell-based; conditions: 168 h, Sabouraud glucose agar medium, 25° C., 7 days, read-out: minimal growth inhibitory concentration against Trichophyton mentagrophytes
Experimental: (§1) The compound of Synthetic Example 1 was subjected to a minimal growth inhibitory concentration (MIC) test against Propionibacterium acnes (P. acnes) and Trichophyton mentagrophytes (T. mentagrophytes). The test method is shown below. (1) Preparation of Test Bacterial Culture Propionibacterium acnes: Anaerobically cultured in a GAM agar medium at 35° C. for 48 hr. A part thereof was transplanted into a GAM bouillon medium, and anaerobically cultured at 35° C. for 24 hr. The culture medium was diluted with GAM bouillon medium to adjust to about 10^6 cells/mL and used as a test bacterial culture. Trichophyton mentagrophytes: Test bacteria were cultured in a Sabouraud glucose agar medium at 25° C. for 7-14 days, spore and hypha pick were scraped with a platinum loop, suspended in polysorbate 80 0.05% sterile saline and ground in a homogenizer. The solution was filtered through sterile gauze folded in four, and diluted with polysorbate 80 0.05% sterile saline to adjust to about 10^6 cells/mL and used as a test bacterial culture. (2) Preparation of Antimicrobial Agent Dilution Solution A sample was diluted with sterile purified water to prepare a 100000-1000 μg (active ingredient)/mL dilution series. (3) Preparation of Antimicrobial Agent-Added Agar Medium The agar medium was dispensed by 9.0 mL into a test tube and, after autoclave sterilization, and incubated in a molten state at 50° C. […]

[2] = tested on: Propionibacterium acnes; test: as above; format: cell-based; conditions: Cutibacterium acnes; GAM agar medium, 35° C., 48 hr anaerobic culture; read-out: minimal growth inhibitory concentration against Propionibacterium acnes
Experimental: as §1

## CCCCCCCCCC(=O)N1CCC[C@H]1C(=O)N1CCC[C@H]1C(=O)O [Synthetic Example 1, decanoyl prolylproline] (Decanoyl-Pro-Pro-OH)
[1]
  MIC: 1000 to 1500 mg/L (≈ 2.73 to 4.09 mM)
[2]
  MIC: 2000 to 3000 mg/L (≈ 5.46 to 8.19 mM)
